Test results from EP3046573B1, “AMYLIN ANALOGUES” (Zealand Pharma A/S, priority 2013, dated 2015).
Numbered stars: 1 amine (or outer) side, 2 acyl side, 3 side chain; on linkers, the order of the positions; unused ones are H or OH. Bridge positions count the residues as written; N and C are the ends. Square brackets hold non-standard residues; d marks the D form. Peptide text beside a SMILES is read from it. * marks the point of attachment. C20 diacid = O=C(O)CCCCCCCCCCCCCCCCCCC(=O)*; γGlu = O=C(O)[C@H](CCC(=O)[*:2])N[*:1]; NMeI = CC[C@H](C)[C@H](NC)C(=O)O; Sar = CNCC(=O)O

Experiments:
[1] = Solubility assessment (turbidity absorbance at 325 nm); type: physicochemical; conditions: stock 2 mg/ml diluted 1:1, ambient temperature (typically 25°C), n=1; for Solubility, Acetate buffer pH 4: 100 mM acetate buffer pH 4.0; for Solubility, Acetate buffer pH 5: 100 mM acetate buffer pH 5.0; for Solubility, Histidine buffer pH 6: 100 mM histidine buffer pH 6.0; for Solubility, Histidine buffer pH 7: 100 mM histidine buffer pH 7.0; for Solubility, Phosphate buffer pH 6: 100 mM phosphate buffer pH 6.0; for Solubility, Phosphate buffer pH 7: 100 mM phosphate buffer pH 7.0; for Solubility, Phosphate buffer pH 7.5: 100 mM phosphate buffer pH7.5
Procedure, shortened: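 Turbidity read as absorbance at 325 nm (also 280 nm), single samples at ambient temperature (typically 25°C); ≤ 0.02 units counts as ≥ 1 mg/ml soluble. Samples made by 1:1 dilution of a 2 mg/ml acidic stock into 100 mM acetate, histidine or phosphate buffers, pH 4.0–7.5.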

[2] = test system: Sprague Dawley (SD) rats; assay: Acute food intake and body weight in normal Sprague Dawley rats; type: in vivo; conditions: vehicle-corrected, dose 30 nmol/kg sc, once; for Body weight loss (%) after 96 hours: mean ± SEM, n = 8
Method: Sprague Dawley (SD) rats were obtained from Taconic A/S, Denmark. The animals arrived at least 7 days before the study start to allow acclimatization to experimental conditions. From arrival and throughout the study, the rats were housed in groups of 2 (n = 2) in a light-, temperature- and humidity-controlled room (reversed 12/12 h light/dark cycle: lights turned off during day-time and on during night-time; temperature 20-22°C; relative humidity 50-80%). Animals had access ad libitum to food (Altromin™ 1324, Brogaarden A/S, Gentofte, Denmark) and water (domestic quality tap water with citric acid added to pH ∼ 3.6) during the entire study. Stratification of rats was based on body weight (BW) on a cage-by-cage basis; mean BWs per cage were used as the basis for pairing four cages together in a group (n = 8 per group). A vehicle group and positive control group were included in each set of tests. Rats were dosed subcutaneously (sc) once in the morning immediately before turning off the lights, using a body weight-corrected dose of peptide (30 nmol/kg). Dosing volume was 5 ml/kg. Food intake was recorded manually at t = 0 (pre-dose) and at t = 4, 7, 10, 24, 48, 72 and 96 hours after dosing. Body weight was measured daily.
Statistical analyses on body weight were performed using GraphPad™ Prism version 5. The measured parameters were compared using unpaired t tests. Differences were considered statistically significant at p < 0.05. Data are means ± SEM; n =8.

| Compound | Solubility, Acetate buffer pH 4 [1] | Solubility, Acetate buffer pH 5 [1] | Solubility, Histidine buffer pH 6 [1] | Solubility, Histidine buffer pH 7 [1] | Solubility, Phosphate buffer pH 6 [1] | Solubility, Phosphate buffer pH 7 [1] | Solubility, Phosphate buffer pH 7.5 [1] | Food intake inhibition (%) after 48 hours [2] [%] | Body weight loss (%) after 96 hours [2] [%] |
| --- | --- | --- | --- | --- | --- | --- | --- | --- | --- |
| CC[C@H](C)[C@@H](C(=O)N[C@@H](CC(C)C)C(=O)N[C@@H](CO)C(=O)N[C@@H](CO)C(=O)N[C@H](C(=O)N[C@@H](CCC(=O)O)C(=O)N[C@H](C(=O)NCC(=O)N[C@@H](CO)C(=O)N[C@@H](CCC(=O)O)C(=O)N[C@H](C(=O)N1CCC[C@H]1C(N)=O)[C@@H](C)O)C(C)C)[C@@H](C)O)N(C)C(=O)[C@H](C)NC(=O)CN(C)C(=O)[C@H](Cc1ccccc1)NC(=O)[C@H](CO)NC(=O)[C@H](CO)NC(=O)[C@H](CCCNC(=N)N)NC(=O)[C@H](Cc1c[nH]cn1)NC(=O)[C@H](CC(C)C)NC(=O)[C@H](Cc1ccccc1)NC(=O)[C@H](CCC(=O)O)NC(=O)[C@H](C)NC(=O)[C@H](CC(C)C)NC(=O)[C@H](CCCNC(=N)N)NC(=O)[C@H](CCC(=O)O)NC(=O)[C@@H](NC(=O)[C@H](C)NC(=O)[C@@H]1CSSC[C@H](NC(=O)[C@H](Cc2c[nH]c3ccccc23)NC(=O)CC[C@H](NC(=O)CCCCCCCCCCCCCCCCCCC(=O)O)C(=O)O)C(=O)NCC(=O)N[C@@H]([C@@H](C)O)C(=O)N[C@@H](C)C(=O)N[C@@H]([C@@H](C)O)C(=O)N1)[C@@H](C)O [Compound 161, [19CD]-isoGlu-WC()GTATC()ATERLAEFLHRSSF-Gly(Me)-A-Ile(Me)-LSSTEVGSETP-NH2] ({C20 diacid-γGlu}-WCGTATCATERLAEFLHRSSF[Sar]A[NMeI]LSSTEVGSETP-NH2; disulfide 2-7) | II (II indicates solubility ≤ 1 mg/ml) | SS (SS indicates solubility ≥ 1mg/ml) | SS (SS indicates solubility ≥ 1mg/ml) | SS (SS indicates solubility ≥ 1mg/ml) | SS (SS indicates solubility ≥ 1mg/ml) | SS (SS indicates solubility ≥ 1mg/ml) | SS (SS indicates solubility ≥ 1mg/ml) | 99 | 10 ± 2.7 |
| CC[C@H](C)[C@@H](C(=O)N[C@@H](CC(C)C)C(=O)N[C@@H](CO)C(=O)N[C@@H](CO)C(=O)N[C@H](C(=O)N[C@@H](CCC(=O)O)C(=O)N[C@H](C(=O)NCC(=O)N[C@@H](CO)C(=O)N[C@@H](CCC(=O)O)C(=O)N[C@H](C(=O)N1CCC[C@H]1C(N)=O)[C@@H](C)O)C(C)C)[C@@H](C)O)N(C)C(=O)[C@H](C)NC(=O)CN(C)C(=O)[C@H](Cc1ccccc1)NC(=O)[C@H](CO)NC(=O)[C@H](CO)NC(=O)[C@H](CO)NC(=O)[C@H](CO)NC(=O)[C@H](CCCNC(=N)N)NC(=O)[C@H](Cc1c[nH]cn1)NC(=O)[C@H](CC(C)C)NC(=O)[C@H](Cc1ccccc1)NC(=O)[C@H](CCC(=O)O)NC(=O)[C@H](C)NC(=O)[C@H](CC(C)C)NC(=O)[C@H](CCCNC(=N)N)NC(=O)[C@H](C)NC(=O)[C@@H](NC(=O)[C@H](C)NC(=O)[C@@H]1CSSC[C@H](NC(=O)[C@H](CCCNC(=N)N)NC(=O)CC[C@H](NC(=O)CCCCCCCCCCCCCCCCCCC(=O)O)C(=O)O)C(=O)N[C@@H](CC(N)=O)C(=O)N[C@@H]([C@@H](C)O)C(=O)N[C@@H](C)C(=O)N[C@@H]([C@@H](C)O)C(=O)N1)[C@@H](C)O [Compound 118, [19CD]-isoGlu-RC()NTATC()ATARLAEFLHRSSSSF-Gly(Me)-A-Ile(Me)-LSSTEVGSETP-NH2] ({C20 diacid-γGlu}-RCNTATCATARLAEFLHRSSSSF[Sar]A[NMeI]LSSTEVGSETP-NH2; disulfide 2-7) | – | – | – | – | – | – | – | 93 | 13 ± 1.8 |
| CC[C@H](C)[C@H](NC(=O)[C@@H]1CCCN1C(=O)CNC(=O)[C@H](Cc1ccccc1)NC(=O)[C@H](CC(N)=O)NC(=O)[C@H](CC(N)=O)NC(=O)[C@H](CO)NC(=O)[C@H](CO)NC(=O)[C@H](Cc1c[nH]cn1)NC(=O)[C@H](Cc1c[nH]cn1)NC(=O)[C@H](CC(C)C)NC(=O)[C@H](Cc1ccccc1)NC(=O)[C@H](CCC(=O)O)NC(=O)[C@H](C)NC(=O)[C@H](CC(C)C)NC(=O)[C@H](CCCNC(=N)N)NC(=O)[C@H](CCC(N)=O)NC(=O)[C@@H](NC(=O)[C@H](C)NC(=O)[C@@H]1CSSC[C@H](NC(=O)[C@H](CCCNC(=N)N)NC(=O)CC[C@H](NC(=O)CCCCCCCCCCCCCCCCCCC(=O)O)C(=O)O)C(=O)N[C@@H](CC(N)=O)C(=O)N[C@@H]([C@@H](C)O)C(=O)N[C@@H](C)C(=O)N[C@@H]([C@@H](C)O)C(=O)N1)[C@@H](C)O)C(=O)N[C@@H](CC(C)C)C(=O)N1CCC[C@H]1C(=O)N1CCC[C@H]1C(=O)N[C@H](C(=O)N[C@@H](CC(N)=O)C(=O)N[C@H](C(=O)NCC(=O)N[C@@H](CO)C(=O)N[C@@H](CC(N)=O)C(=O)N[C@H](C(=O)N1CCC[C@H]1C(N)=O)[C@@H](C)O)C(C)C)[C@@H](C)O [NN96, N-α-[(S)-4-carboxy-4-(19-carboxynonadecanoylamino)butyryl]-[Arg1,Glu14,His17,Pro37]-pramlintide, reference compound] ({C20 diacid-γGlu}-RCNTATCATQRLAEFLHHSSNNFGPILPPTNVGSNTP-NH2; disulfide 2-7) | SS (SS indicates solubility ≥ 1mg/ml) | SS (SS indicates solubility ≥ 1mg/ml) | SS (SS indicates solubility ≥ 1mg/ml) | SS (SS indicates solubility ≥ 1mg/ml) | SS (SS indicates solubility ≥ 1mg/ml) | SS (SS indicates solubility ≥ 1mg/ml) | SS (SS indicates solubility ≥ 1mg/ml) | – | – |
| CC[C@H](C)[C@@H](C(=O)N[C@@H](CC(C)C)C(=O)N1CCC[C@H]1C(=O)N1CCC[C@H]1C(=O)N[C@H](C(=O)N[C@@H](CC(N)=O)C(=O)N[C@H](C(=O)NCC(=O)N[C@@H](CO)C(=O)N[C@@H](CC(N)=O)C(=O)N[C@H](C(=O)N1CCC[C@H]1C(N)=O)[C@@H](C)O)C(C)C)[C@@H](C)O)N(C)C(=O)CN(C)C(=O)[C@H](Cc1ccccc1)NC(=O)[C@H](CC(N)=O)NC(=O)[C@H](CC(N)=O)NC(=O)[C@H](CO)NC(=O)[C@H](CO)NC(=O)[C@H](Cc1c[nH]cn1)NC(=O)[C@H](Cc1c[nH]cn1)NC(=O)[C@H](CC(C)C)NC(=O)[C@H](Cc1ccccc1)NC(=O)[C@H](CCC(=O)O)NC(=O)[C@H](C)NC(=O)[C@H](CC(C)C)NC(=O)[C@H](CCCNC(=N)N)NC(=O)[C@H](CCC(N)=O)NC(=O)[C@@H](NC(=O)[C@H](C)NC(=O)[C@@H]1CSSC[C@H](NC(=O)[C@H](CCCNC(=N)N)NC(=O)CC[C@H](NC(=O)CCCCCCCCCCCCCCCCCCC(=O)O)C(=O)O)C(=O)N[C@@H](CC(N)=O)C(=O)N[C@@H]([C@@H](C)O)C(=O)N[C@@H](C)C(=O)N[C@@H]([C@@H](C)O)C(=O)N1)[C@@H](C)O [Compound 176, [19CD]-isoGlu-RC()NTATC()ATQRLAEFLHHSSNNF-Gly(Me)-Ile(Me)-LPPTNVGSNTP-NH2] ({C20 diacid-γGlu}-RCNTATCATQRLAEFLHHSSNNF[Sar][NMeI]LPPTNVGSNTP-NH2; disulfide 2-7) | SS (SS indicates solubility ≥ 1mg/ml) | SS (SS indicates solubility ≥ 1mg/ml) | SS (SS indicates solubility ≥ 1mg/ml) | SS (SS indicates solubility ≥ 1mg/ml) | SS (SS indicates solubility ≥ 1mg/ml) | SS (SS indicates solubility ≥ 1mg/ml) | SS (SS indicates solubility ≥ 1mg/ml) | – | – |
